Converted amounts (≈) assume the structure as drawn. Where two headings read alike, the source gives them in different places.
Experiments:
Experiment in all cases: MIC, antibiotic dilution technique (agar)
Str. pyogenes = assay type: cell-based, S. pyogenes; conditions: Streptococcus pyogenes; Table 1, Str. pyogenes
Description: (§1) Bacteria. The organisms, preponderantly of recent clinical origin, were obtained from numerous sources of broad geographical distribution. Obligate anaerobes were maintained in Egg Meat Medium (Difco); Mycobacterium was stored on Lowenstein Medium (Jensen Modification; Difco). The techniques of storing all other organisms have been described previously [Leitner et al., BL-S640, A Cephalosporin with a Broad Spectrum of Antibacterial Activity: Properties in vitro, Antimicrob. Agents Chemother., 7, 298-305 (1975)].
(§2) Antibiotic spectrum. The growth-inhibitory activity of the compounds was determined by the antibiotic dilution technique. Procedures were as follows:
(§3) Aerobic organisms (excluding Mycobacterium). Except for Haemophilus and Neisseria, the assay was performed in Mueller-Hinton Medium (Difco). For fastidious organisms, i.e., Streptococcus, Listeria, Pasteurella, Bordetella and Vibrio, the medium was supplemented with 4% defibrinated sheep blood. The antibiotic susceptibility of Haemophilus and Neisseria was determined in GC Medium Base (BBL) supplemented with 1% Hemoglobin (BBL) and 1% Isovitalex (BBL).
(§4) Overnight broth cultures of an exponentially growing culture (Neisseria) served as the source of inoculum. A volume of approximately 0.003 ml. of the undiluted or diluted culture was applied to the surface of the antibiotic-containing agar plates with the inoculator of Steers et al., An Inocula Replicating Apparatus for Routine Testing of Bacterial Susceptibility to Antibiotics, Antibiot. Chemother., 9, 307-311, (1959). Cultures of Neisseria, Streptococcus pneumoniae, S. viridans and S. pyogenes were used without dilution; those of all other organisms were diluted 100-fold. The inoculum contained about 10^3 viable cells for Neisseria, 10^5 for S. pneumoniae and S. pyogenes, 10^6 for S. viridans and 10^4 for all other species.

E. Coli = assay type: cell-based; conditions: Escherichia coli, Table 1, E. Coli
Description: as §1, §2, §3, §4

Pr. rettgeri = assay type: cell-based; conditions: Providencia rettgeri; Table 1, Pr. rettgeri
Description: as §1, §2, §3, §4

K. pneumoniae = assay type: cell-based; conditions: Klebsiella pneumoniae, Table 1, K. pneumoniae, read-out: MIC
Description: as §1, §2, §3, §4

S. aureus Meth-Res. = assay type: cell-based; conditions: Staphylococcus aureus; Table 1, S. aureus Meth-Res.
Description: as §1, §2, §3, §4

S. aureus = assay type: cell-based; conditions: Staphylococcus aureus
Description: as §1, §2, §3, §4

Pr. vulgaris = assay type: cell-based; conditions: Proteus vulgaris; Table 1, Pr. vulgaris
Description: as §1, §2, §3, §4

Pr. morganii = assay type: cell-based; conditions: Morganella morganii; Table 1, Pr. morganni; read-out: MIC
Description: as §1, §2, §3, §4

Ps. aeruginosa = assay type: cell-based; conditions: Pseudomonas aeruginosa, Table 1, Ps. aeruginosa, read-out: MIC
Description: as §1, §2, §3, §4

Pr. mirabilis = assay type: cell-based; conditions: Proteus mirabilis; Table 1, Pr. mirabilis
Description: as §1, §2, §3, §4

Str. pneumoniae = assay type: cell-based; conditions: Streptococcus pneumoniae; Table 1, Str. pneumoniae
Description: as §1, §2, §3, §4

Ser. marcescens = assay type: cell-based; conditions: Serratia marcescens; Table 1, Ser. marcescens
Description: as §1, §2, §3, §4

Ent. cloacae = assay type: cell-based; conditions: Enterobacter cloacae, Table 1, Ent. cloacae, read-out: MIC
Description: as §1, §2, §3, §4

Str. faecalis = assay type: cell-based; conditions: Enterococcus faecalis; Table 1, Str. faecalis
Description: as §1, §2, §3, §4

S. aureus Pen-Res. = assay type: cell-based; conditions: Staphylococcus aureus; Table 1, S. aureus Pen-Res.; read-out: MIC
Description: as §1, §2, §3, §4

For `CC1(C)S[C@@H]2[C@H](N3C(=O)[C@@H](c4ccccc4)NC3(C)C)C(=O)N2[C@H]1C(=O)O` [Hetacillin, hetacillin], the MIC (Str. pyogenes) was 0.004 µg/mL (≈ 0.0103 µM), the MIC (E. Coli; first line) was 1 µg/mL (≈ 2.57 µM) and the MIC (E. Coli; second line) was 32 µg/mL (≈ 82.2 µM). For the same compound, the MIC (Pr. rettgeri) was 8 µg/mL (≈ 20.5 µM), the MIC (K. pneumoniae; first line) was 63 µg/mL (≈ 162 µM) and the MIC (K. pneumoniae; second line) was 63 µg/mL (≈ 162 µM). For the same compound, the MIC (S. aureus Meth-Res.) was 16 µg/mL (≈ 41.1 µM), the MIC (S. aureus; Table 1, S. aureus) was 0.008 µg/mL (≈ 0.0205 µM) and the MIC (S. aureus; Table 1, S. aureus + 50% serum) was 0.016 µg/mL. For the same compound, the MIC (Pr. vulgaris) was 0.06 µg/mL (≈ 0.154 µM), the MIC (Pr. morganii) was 16 µg/mL (≈ 41.1 µM) and the MIC (Ps. aeruginosa; first line) was 63 µg/mL (≈ 162 µM). It also gave an MIC (Ps. aeruginosa; second line) of 125 µg/mL (≈ 321 µM), an MIC (Pr. mirabilis) of 0.03 µg/mL (≈ 0.077 µM) and an MIC (Str. pneumoniae) of 0.004 µg/mL (≈ 0.0103 µM). For the same compound, the MIC (Ser. marcescens) was 16 µg/mL (≈ 41.1 µM), the MIC (Ent. cloacae; first line) was 32 µg/mL (≈ 82.2 µM) and the MIC (Ent. cloacae; second line) was 63 µg/mL (≈ 162 µM). The MIC (Str. faecalis) was 0.13 µg/mL (≈ 0.334 µM) and the MIC (S. aureus Pen-Res.) was 125 µg/mL (≈ 321 µM).

— patent US4217274A, “Methoxyethoxymethyl esters of penicillins” (Bristol-Myers Company, priority 1978, dated 1980)
